# Laboratory results as given in US8134015B2, “Compound inhibiting in vivo phosphorous transport and medicine containing the same” (Kyowa Hakko Kirin Co., Ltd., priority 2003, dated 2012).
# Structures can show the parent of a compound that is named as a salt.
# Target: T1, rat NaPi-2b (Rattus norvegicus, UniProt Q9JJ09)
# T1 construct: expressed in transfected cells; host or cells: Xenopus oocytes injected with cRNA
# T1 sequence (Q9JJ09 1-695): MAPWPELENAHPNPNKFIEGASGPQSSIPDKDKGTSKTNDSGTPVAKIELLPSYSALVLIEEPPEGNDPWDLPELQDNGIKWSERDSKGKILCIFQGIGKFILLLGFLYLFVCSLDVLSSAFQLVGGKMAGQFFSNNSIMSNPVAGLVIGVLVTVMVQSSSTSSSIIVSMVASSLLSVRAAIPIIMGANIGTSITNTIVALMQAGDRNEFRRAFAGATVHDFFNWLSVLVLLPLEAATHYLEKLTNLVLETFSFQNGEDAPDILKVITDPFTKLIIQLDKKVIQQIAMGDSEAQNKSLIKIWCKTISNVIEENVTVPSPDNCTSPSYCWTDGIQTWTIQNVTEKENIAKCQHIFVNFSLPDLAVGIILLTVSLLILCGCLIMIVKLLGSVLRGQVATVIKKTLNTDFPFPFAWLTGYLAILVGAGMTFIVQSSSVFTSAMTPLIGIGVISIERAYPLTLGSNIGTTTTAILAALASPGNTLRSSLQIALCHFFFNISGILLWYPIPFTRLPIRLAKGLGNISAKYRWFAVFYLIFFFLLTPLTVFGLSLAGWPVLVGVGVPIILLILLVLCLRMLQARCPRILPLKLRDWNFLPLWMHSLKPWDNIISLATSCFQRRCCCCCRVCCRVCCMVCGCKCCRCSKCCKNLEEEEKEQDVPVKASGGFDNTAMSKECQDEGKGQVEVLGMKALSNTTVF
# Experiment: Sodium-dependent phosphate uptake of Xenopus oocytes which expressed NaPi-2b (32P)
# Assay type: cell-based
# Settings: Xenopus oocytes expressing rat NaPi-2b, 32P radioactive phosphorus; read-out: IC50 (phosphate uptake inhibitory activity)
# Outline: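 Rat small-intestine NaPi-2b cRNA injected into Xenopus oocytes, expressed for 2 days. Sodium-dependent phosphate uptake measured with 32P; % inhibition at 300 and 100 μM taken from the same inhibition curve.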
row,IC50,Structure (SMILES)
1,< 1000 nM,"COc1ccc(/C=N/NC(=O)c2c(C)csc2NC(=O)c2cccc(CN(CC(C)O)CC(C)O)c2)cc1 (centres unmarked) [Compound 852, 3-{[Bis-(2-hydroxy-propyl)-amino]-methyl}-N-[3-(4-methoxy-benzylidene-hydrazinocarbonyl)-4-methyl-thiophen-2-yl]-benzamide; hydrochloride]"
2,2140 nM,"CC(O)CN(Cc1cccc(C(=O)Nc2ccc(F)cc2C(=O)N/N=C/c2ccc(Cl)c(C(F)(F)F)c2)c1)CC(C)O (centres unmarked) [Compound 853, 3-{[Bis-(2-hydroxy-propyl)-amino]-methyl}-N-[2-(4-chloro-3-trifluoromethyl-benzylidene-hydrazinocarbonyl)-4-fluoro-phenyl]-benzamide; hydrochloride]"
3,1330 nM,"COc1ccc(/C=N/NC(=O)c2cc(F)ccc2NC(=O)c2cccc(CN(CC(C)O)CC(C)O)c2)cc1 (centres unmarked) [Compound 854, 3-{[Bis-(2-hydroxy-propyl)-amino]-methyl}-N-[4-fluoro-2-(4-methoxy-benzylidene-hydrazinocarbonyl)-phenyl]-benzamide; hydrochloride]"
4,1750 nM,"CCN(CC)CCN(CCN(CC)CC)Cc1cccc(C(=O)Nc2sc3c(c2C(=O)N/N=C/c2ccc(Cl)c(C(F)(F)F)c2)CCCC3)c1 [Compound 855, 3-{[Bis-(2-diethylamino-ethyl)-amino]-methyl}-N-[3-(4-chloro-3-trifluoromethyl-benzylidene-hydrazinocarbonyl)-4,5,6,7-tetrahydro-benzo[b]thiophen-2-yl]-benzamide; hydrochloride]"
5,1770 nM,"CCN(CC)CCN(CCN(CC)CC)Cc1cccc(C(=O)Nc2sc3c(c2C(=O)N/N=C/c2ccc(OC)cc2)CCCC3)c1 [Compound 856, 3-{[Bis-(2-diethylamino-ethyl)-amino]-methyl}-N-[3-(4-methoxy-benzylidene-hydrazinocarbonyl)-4,5,6,7-tetrahydro-benzo[b]thiophen-2-yl]-benzamide; hydrochloride]"
6,1180 nM,"CC(O)CN(Cc1cccc(C(=O)Nc2ccc(F)cc2C(=O)N/N=C/c2ccc(Cl)c(C(F)(F)F)c2)c1)CC(C)O (centres unmarked) [Compound 857, 3-{[Bis-(2-hydroxy-propyl)-amino]-methyl}-N-[2-(4-chloro-3-trifluoromethyl-benzylidene-hydrazinocarbonyl)-4-fluoro-phenyl]-benzamide]"
7,1920 nM,"O=C(Nc1ccc(N2CCCCC2)cc1C(=O)N/N=C/c1ccc(F)cc1)c1cccc(CN2CCN(CCO)CC2)c1 [Compound 866, N-[2-(4-Fluoro-benzylidene-hydrazinocarbonyl)-4-piperidin-1-yl-phenyl]-3-[4-(2-hydroxy-ethyl)-piperazin-1-ylmethyl]-benzamide]"
8,2240 nM,"O=C(Nc1ccc(N2CCCCC2)cc1C(=O)N/N=C/c1cccc(F)c1)c1cccc(CN2CCN(CCO)CC2)c1 [Compound 867, N-[2-(3-Fluoro-benzylidene-hydrazinocarbonyl)-4-piperidin-1-yl-phenyl]-3-[4-(2-hydroxy-ethyl)-piperazin-1-ylmethyl]-benzamide]"
9,< 300 nM,"O=C(Nc1ccc(N2CCCCC2)cc1C(=O)N/N=C/c1ccc(Cl)c(C(F)(F)F)c1)c1cccc(CN2CCN(CCO)CC2)c1 [Compound 868, N-[2-(4-Chloro-3-trifluoromethyl-benzylidene-hydrazinocarbonyl)-4-piperidin-1-yl-phenyl]-3-[4-(2-hydroxy-ethyl)-piperazin-1-ylmethyl]-benzamide]"
10,6680 nM,"COc1ccc(/C=N/NC(=O)c2cc(N3CCCCC3)ccc2NC(=O)c2cccc(CN3CCN(CCO)CC3)c2)cc1 [Compound 869, 3-[4-(2-Hydroxy-ethyl)-piperazin-1-ylmethyl]-N-[2-(4-methoxy-benzylidene-hydrazinocarbonyl)-4-piperidin-1-yl-phenyl]-benzamide]"
11,530 nM,"Cc1ccc(/C=N/NC(=O)c2cc(N3CCCCC3)ccc2NC(=O)c2cccc(CN3CCC(O)CC3)c2)cc1C [Compound 870, N-[2-(3,4-Dimethyl-benzylidene-hydrazinocarbonyl)-4-piperidin-1-yl-phenyl]-3-(4-hydroxy-piperidin-1-ylmethyl)-benzamide]"
